Test results published in the supplement of paper PMC10307832.

Assays:
Assay in all cases: relative viability (nuclei count vs DMSO), 5 days (fraction); higher = more cells survive
[1] = compound: CN(C)C[C@@H]1CCn2cc(c3ccccc32)C2=C(C(=O)NC2=O)c2cn(c3ccccc23)CCO1 [Ruboxistaurin] + N=C(N)NC(=N)NCCc1ccccc1 [Phenformin] (partner 250 µM)
Procedure, shortened: (§1)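 Relative viability divides the nuclei count in treated wells by that in vehicle wells. Lung cancer cell lines were seeded in 1536-well plates, dosed by pin tool the next day, and fixed and stained after 5 days in one step with final 0.05% Triton X-100, 1% formaldehyde and 1 ug/ml Hoechst. Dosing was a single drug or a fixed anchor-drug dose plus five library-drug doses (not always all listed) in √10 steps, and values are medians of duplicate plates imaged at 4×.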

[2] = compound: CN(C)C[C@@H]1CCn2cc(c3ccccc32)C2=C(C(=O)NC2=O)c2cn(c3ccccc23)CCO1 [Ruboxistaurin] + C[C@@H](Oc1cc(-c2cnn(C3CCNCC3)c2)cnc1N)c1c(Cl)ccc(F)c1Cl [Crizotinib] (partner 1 µM)
Procedure, shortened: as §1

[3] = compound: CN(C)C[C@@H]1CCn2cc(c3ccccc32)C2=C(C(=O)NC2=O)c2cn(c3ccccc23)CCO1 [Ruboxistaurin] + COc1cc2c(Oc3ccc(NC(=O)C4(C(=O)Nc5ccc(F)cc5)CC4)cc3F)ccnc2cc1OCCCN1CCOCC1 [Foretinib] (partner 0.25 µM)
Procedure, shortened: as §1

[4] = compound: CN(C)C[C@@H]1CCn2cc(c3ccccc32)C2=C(C(=O)NC2=O)c2cn(c3ccccc23)CCO1 [Ruboxistaurin] + C[C@]1(O)C[C@@H](c2nc(-c3ccc4ccc(-c5ccccc5)nc4c3)c3c(N)nccn32)C1 [Linsitinib] (partner 1 µM)
Procedure, shortened: as §1

[5] = compound: CN(C)C[C@@H]1CCn2cc(c3ccccc32)C2=C(C(=O)NC2=O)c2cn(c3ccccc23)CCO1 [Ruboxistaurin]
Procedure, shortened: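 On vehicle-anchored 1536-well plates, lung cancer cell lines held overnight at 37 °C were pinned with five library-drug doses (not always all listed) spaced by √10. With no medium change over 5 days, they were then fixed, permeabilised and Hoechst-stained in one step and imaged at 4×. MetaXpress counted nuclei, and viability is the median across plates of treated-well over vehicle-well nuclei. Acceptance needed control CV below 25% and at least one doubling.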

Cell Line | relative viability ([1]; first compound 0.08 µM) | relative viability ([1]; first compound 0.8 µM) | relative viability ([1]; first compound 2.53 µM) | relative viability ([1]; first compound 8 µM) | relative viability ([2]; first compound 0.08 µM) | relative viability ([2]; first compound 0.8 µM) | relative viability ([2]; first compound 2.53 µM) | relative viability ([2]; first compound 8 µM) | relative viability ([3]; first compound 0.08 µM) | relative viability ([3]; first compound 0.8 µM) | relative viability ([3]; first compound 2.53 µM) | relative viability ([3]; first compound 8 µM) | relative viability ([4]; first compound 0.08 µM) | relative viability ([4]; first compound 0.8 µM) | relative viability ([4]; first compound 2.53 µM) | relative viability ([4]; first compound 8 µM) | relative viability ([5]; 0.08 µM) | relative viability ([5]; 0.8 µM) | relative viability ([5]; 2.53 µM) | relative viability ([5]; 8 µM)
NCI-H647 | 0.656 | 0.483 | 0.599 | 0.409 | 1.03 | 0.849 | 1.15 | 0.995 | 1.27 | 0.832 | 1.19 | 1.32 | 1.2 | 0.923 | 1.24 | 1.02 | 1.1 | 0.898 | 1 | 0.978
NCI-H2009 | 0.579 | 0.442 | 0.536 | 0.502 | 1 | 0.959 | 1.06 | 1.08 | 1.29 | 1.22 | 1.28 | 1.24 | 1.18 | 1.14 | 1.18 | 1.23 | 1.04 | 0.946 | 1.06 | 1.19
EPLC-272H | 0.338 | 0.301 | 0.297 | 0.349 | 0.926 | 0.793 | 0.917 | 0.932 | 0.853 | 0.548 | 0.703 | 0.472 | 1.28 | 1.09 | 1.2 | 1.16 | 1.12 | 0.794 | 0.928 | 0.857
NCI-H520 | 0.766 | 0.54 | 0.599 | 0.393 | 0.838 | 0.698 | 0.758 | 0.693 | 0.628 | 0.693 | 1.05 | 0.786 | 0.991 | 0.998 | 0.985 | 1.12 | 1.05 | 0.901 | 1.02 | 0.779
NCI-H2405 | 0.427 | 0.391 | 0.414 | 0.38 | 0.901 | 0.823 | 0.838 | 0.874 | 1.07 | 0.961 | 0.998 | 1.01 | 1.01 | 0.866 | 1.01 | 0.902 | 1.17 | 0.97 | 1.01 | 1.01
NCI-H2085 | 0.789 | 0.655 | 0.745 | 0.674 | 1 | 0.684 | 0.874 | 0.917 | 0.878 | 0.757 | 1.28 | 1.12 | 1.01 | 0.806 | 0.861 | 0.809 | 1.02 | 0.942 | 1.07 | 1.04
NCI-H322M | 0.838 | 0.67 | 0.656 | 0.455 | 0.96 | 0.863 | 0.949 | 1.11 | 0.947 | 0.922 | 0.981 | 0.627 | 0.969 | 0.826 | 0.861 | 0.779 | 1.02 | 0.863 | 0.895 | 0.551
NCI-H1944 | 0.213 | 0.183 | 0.179 | 0.186 | 1.15 | 1.01 | 1.06 | 1.03 | 0.933 | 0.844 | 0.856 | 0.719 | 1.23 | 1.1 | 1.12 | 1.01 | 0.958 | 0.897 | 0.932 | 0.819
LC-2-ad | 0.621 | 0.574 | 0.615 | 0.572 | 0.458 | 0.406 | 0.476 | 0.638 | 1.03 | 0.905 | 1.02 | 0.747 | 0.931 | 0.862 | 0.912 | 0.742 | 1.06 | 0.935 | 1.04 | 1.08
NCI-H358 | 0.32 | 0.255 | 0.293 | 0.263 | 0.518 | 0.517 | 0.609 | 0.573 | 0.878 | 0.603 | 0.829 | 0.535 | 0.835 | 0.59 | 0.63 | 0.367 | 1.14 | 0.881 | 0.984 | 0.712
NCI-H2170 | 0.443 | 0.429 | 0.458 | 0.474 | 1.15 | 1.13 | 1.2 | 1.21 | 1.02 | 1.02 | 1.05 | 1.05 |  |  |  |  | 0.994 | 0.875 | 1.06 | 0.953
A-427 | 0.398 | 0.314 | 0.327 | 0.273 | 1.01 | 0.676 | 0.911 | 0.732 | 1.01 | 0.952 | 0.928 | 0.659 | 1.1 | 1.08 | 0.992 | 0.925 | 0.997 | 0.871 | 0.924 | 0.821
NCI-H1666 | 0.598 | 0.533 | 0.583 | 0.584 | 0.941 | 0.88 | 1.09 | 0.733 | 0.986 | 0.919 | 0.894 | 0.871 | 0.951 | 0.691 | 0.964 | 0.565 | 1.09 | 1.02 | 1.04 | 0.968
LOU-NH91 | 0.827 | 0.666 | 0.722 | 0.751 | 0.806 | 0.694 | 0.757 | 0.77 | 1.02 | 0.879 | 0.898 | 0.944 | 1.11 | 0.902 | 0.994 | 0.883 | 1.09 | 0.939 | 1.01 | 0.927
ABC-1 | 0.252 | 0.245 | 0.182 | 0.233 | 1.41 | 0.45 | 1.29 | 0.784 | 1.21 | 1.13 | 1.26 | 1.11 | 0.767 | 0.865 | 0.969 | 0.625 | 1.16 | 0.951 | 1.16 | 0.89
